# Patent publication US7015228B2, “4-amino-2-(2-pyridyl)pyrimidines as microbicidal active substances” (Ciba Specialty Chemicals Corporation, priority 2001, dated 2006)
# Assays:
# Assay type in all cases: cell-based
# [1] = test system: Staphylococcus hominis DMS 20328; experiment: Minimum inhibitory concentration (MIC) in microtitre plates; conditions: Table 7, 48 hours at 37° C., MIC = ≦20% growth compared to control
# Method: (§1) Determination of the Minimum Inhibitory Concentration (MIC Value) in Microtitre Plates
# (§2) Casein-soybean flour-peptone broth for preparation of pre-cultures of test bacteria and yeast.
# (§3) Mycological slant agar for the pre-culture of moulds
# (§4) Examples of Test Organisms:
# (§5) The test substances are pre-dissolved in dimethyl sulfoxide (DMSO) and tested in a dilution series of 1:2.
# (§6) Bacteria and yeast are cultured overnight in CASO broth, the mould is cultured overnight on mycological slant agar, and washed off using 10 ml of 0.85% sodium chloride solution (+0.1% Triton X-100).
# (§7) All the test organisms are adjusted to an organism count of 1–5×10^6 CFU/ml using 0.85% sodium chloride solution.
# (§8) The test substances are pre-pipetted into microtitre plates in amounts of 8 μl per well.
# (§9) Pre-diluted organism suspensions are diluted 1:100 in CASO broth (bacteria and yeast) or Sabouraud 2% glucose broth (mould) and are added in amounts of 192 μl per well to the test substances.
# (§10) The test batches are incubated for 48 hours at 37° C. (bacteria and yeast) or for 5 days at 28° C. (mould).
# (§11) After incubation, the growth is determined on the basis of the turbidity of the test batches (optical density) at 620 nm in a microplate reader.
# (§12) The minimum inhibitory concentration (MIC value) is the concentration of substance at which there is found (compared to the growth of the control) an appreciable inhibition of growth (≦20% growth) of the test organisms.
# (§13) One microtitre plate is used for each test organism and substance concentration. All the substances are tested in duplicate.
# [2] = test system: Escherichia coli NCTC 8196; experiment: as above; conditions: for Minimum inhibitory concentration (MIC) E. coli NCTC 8196: Table 8, * = significant inhibition of growth, but not complete inhibition
# Method: as §1, §2, §3, §4, §5, §6, §7, §8, §9, §10, §11, §12, §13
# [3] = test system: Trichophyton mentagrophytes ATCC 9533; experiment: Minimum inhibitory concentration (MIC), further microorganisms; conditions: Table 8; * = significant inhibition of growth, but not complete inhibition
# Method: as §1, §2, §3, §5, §6, §7, §8, §9, §10, §11, §12, §13
# [4] = test system: Micrococcus luteus ATCC 9341; experiment: as above; conditions: Table 8; * = significant inhibition of growth, but not complete inhibition
# Method: as §1, §2, §3, §5, §6, §7, §8, §9, §10, §11, §12, §13
# [5] = test system: Staphylococcus aureus ATCC 9144; experiment: as above; conditions: Table 8; * = significant inhibition of growth, but not complete inhibition
# Method: as §1, §2, §3, §5, §6, §7, §8, §9, §10, §11, §12, §13
# [6] = test system: Enterococcus hirae ATCC 10541; experiment: as above; conditions: Table 8; * = significant inhibition of growth, but not complete inhibition
# Method: as §1, §2, §3, §5, §6, §7, §8, §9, §10, §11, §12, §13
# [7] = test system: Epidermophyton floccosum DSM 10709; experiment: as above; conditions: Table 8; * = significant inhibition of growth, but not complete inhibition
# Method: as §1, §2, §3, §5, §6, §7, §8, §9, §10, §11, §12, §13
# [8] = test system: S. epidermidis ATCC 12228; experiment: as above; conditions: Table 8; * = significant inhibition of growth, but not complete inhibition
# Method: as §1, §2, §3, §5, §6, §7, §8, §9, §10, §11, §12, §13
# [9] = Table 7, 48 hours at 37° C., MIC = ≦20% growth compared to control
Minimum inhibitory concentration (MIC) S. hominis [1] [µg/mL],"Minimum inhibitory concentration (MIC) E. coli [2, 9] [µg/mL]",Structure (SMILES),further results
7.5,>120,CCCCCCCCCCNc1cc(CCOC)nc(-c2ccccn2)n1 [compound 83],Minimum inhibitory concentration (MIC) E. coli NCTC 8196 [2]: >60 µg/mL; Minimum inhibitory concentration (MIC) Trichophyton mentagrophytes ATCC 9533 [3]: >60 µg/mL; Minimum inhibitory concentration (MIC) Micrococcus luteus ATCC 9341 [4]: 3.75 µg/mL; Minimum inhibitory concentration (MIC) Staphylococcus aureus ATCC 9144 [5]: *15 μg/mL; Minimum inhibitory concentration (MIC) Enterococcus hirae ATCC 10541 [6]: 30 µg/mL; Minimum inhibitory concentration (MIC) Epidermophyton floccosum DSM 10709 [7]: >60 µg/mL; Minimum inhibitory concentration (MIC) S. epidermidis ATCC 12228 [8]: 15 µg/mL
120,120,CCCCCCCCCCCCCCCNc1cc(C(F)(F)F)nc(-c2ccccn2)n1 [compound 96],–
>120,>120,FC(F)(F)c1cc(NCc2ccccc2)nc(-c2ccccn2)n1 [compound 94],–
5,>80,CCCCCCCCCCNc1nc(-c2ccccn2)nc(C)c1C(C)C [compound 71],Minimum inhibitory concentration (MIC) E. coli NCTC 8196 [2]: >60 µg/mL; Minimum inhibitory concentration (MIC) Trichophyton mentagrophytes ATCC 9533 [3]: *30 μg/mL; Minimum inhibitory concentration (MIC) Micrococcus luteus ATCC 9341 [4]: 1.9 µg/mL; Minimum inhibitory concentration (MIC) Staphylococcus aureus ATCC 9144 [5]: 7.5 µg/mL; Minimum inhibitory concentration (MIC) Enterococcus hirae ATCC 10541 [6]: 7.5 µg/mL; Minimum inhibitory concentration (MIC) Epidermophyton floccosum DSM 10709 [7]: 60 µg/mL; Minimum inhibitory concentration (MIC) S. epidermidis ATCC 12228 [8]: 7.5 µg/mL
30,>120,Cc1nc(-c2ccccn2)nc(NCCc2ccccc2)c1C(C)C [compound 75],–
15,>120,CCCCCCCCCCCCCCCCNc1cc(C)nc(-c2ccccn2)n1 [compound 25],–
>120,>120,CCc1c(C)nc(-c2ccccn2)nc1NCCCCCCCN [compound 4],–
120,>120,CC(C)c1cc(NCCCCCCCN)nc(-c2ccccn2)n1 [compound 40],–
–,–,CCCCCCCCCCCCNc1cc(C(F)(F)F)nc(-c2ccccn2)n1 [compound 36],"MIC ([1]; Staphylococcus hominis, DMS20328, read-out: Minimum inhibitory concentration (MIC) S. hominis): 60 µg/mL; MIC ([2]; Escherichia coli, NCTC8196, Table 7, 48 hours at 37° C., MIC = ≦20% growth compared to control, read-out: Minimum inhibitory concentration (MIC) E. coli): > 120 µg/mL"
30,>120,CC(C)c1cc(NCCc2ccccc2)nc(-c2ccccn2)n1 [compound 51],–
15,>120,CCCCCCCCCCCCNc1nc(-c2ccccn2)nc(C)c1C(C)C [compound 72],–
>120,>120,CCCCCCCCCCCCCCCCNc1cc(C(C)(C)C)nc(-c2ccccn2)n1 [compound 61],–
80,>80,CC(C)(C)c1cc(NCCCCCCCCN)nc(-c2ccccn2)n1 [compound 53],–
40,>80,COCCc1cc(NCCCCCCCN)nc(-c2ccccn2)n1 [compound 76],–
5,20,NCCCCCCCCCCCCNc1cc(C(F)(F)F)nc(-c2ccccn2)n1 [compound 31],–
120,>120,CC(C)c1cc(NCCCCCCCCN)nc(-c2ccccn2)n1 [compound 41],–
120,>120,COCCc1cc(NC2CCCCC2)nc(-c2ccccn2)n1 [compound 86],–
120,>120,CCCCCCCCCCCCCCCCNc1nc(-c2ccccn2)nc(C)c1C(C)C [compound 73],–
30,120,COCCc1cc(NCCc2ccccc2)nc(-c2ccccn2)n1 [compound 87],–
30,>120,Cc1cc(NCc2ccccc2)nc(-c2ccccn2)n1 [compound 91],–
>80,>80,NCCCCCCCCNc1cc(C(F)(F)F)nc(-c2ccccn2)n1 [compound 29],–
120,>120,CCCCCCCCCCCCCCCCNc1nc(-c2ccccn2)nc(C)c1CC [compound 13],–

Minimum inhibitory concentration (MIC) S. hominis [1] [µg/mL],"Minimum inhibitory concentration (MIC) E. coli [2, 9] [µg/mL]",Structure (SMILES),further results
60,>120,Cc1nc(-c2ccccn2)nc(NC2CCCCC2)c1C(C)C [compound 74],–
30,>120,Cc1nc(-c2ccccn2)nc(NCCCCCCCN)c1C(C)C [compound 64],–
>120,>120,Cc1cc(NCCCCCCCN)nc(-c2ccccn2)n1 [compound 16],–
120,120,CCc1c(C)nc(-c2ccccn2)nc1NCc1ccccc1 [compound 88],–
7.5,60,CC(C)(C)c1cc(NCCCCCCCCCCCCN)nc(-c2ccccn2)n1 [compound 55],–
15,120,CC(C)c1cc(NCc2ccccc2)nc(-c2ccccn2)n1 [compound 97],–
>80,>80,NCCCCCCCNc1cc(C(F)(F)F)nc(-c2ccccn2)n1 [compound 28],–
5,20,Cc1nc(-c2ccccn2)nc(NCCCCCCCCCCCCN)c1C(C)C [compound 67],–
>80,>80,Cc1cc(NCCCCCCCCN)nc(-c2ccccn2)n1 [compound 17],–
7.5,120,CCCCCCCCCNc1cc(CCOC)nc(-c2ccccn2)n1 [compound 82],–
15,>120,CC(C)c1cc(NC2CCCCC2)nc(-c2ccccn2)n1 [compound 50],–
30,>120,CCCCCCCNc1cc(CCOC)nc(-c2ccccn2)n1 [compound 80],–
60,>120,FC(F)(F)c1cc(NC2CCCCC2)nc(-c2ccccn2)n1 [compound 38],–
15,>120,CCCCCCCCNc1cc(CCOC)nc(-c2ccccn2)n1 [compound 81],–
30,>120,FC(F)(F)c1cc(NCCc2ccccc2)nc(-c2ccccn2)n1 [compound 39],–
>120,>120,CCc1c(C)nc(-c2ccccn2)nc1NCCCCCCCCN [compound 5],–
15,120,CCCCCCCCCCCCNc1cc(CCOC)nc(-c2ccccn2)n1 [compound 84],–
>120,>120,CCCCCCCCCCCCCCCCNc1cc(C(C)C)nc(-c2ccccn2)n1 [compound 49],–
7.5,120,CCCCCCCNc1cc(C)nc(-c2ccccn2)n1 [compound 20],–
120,120,CCCCCCCCCCCCCCCCNc1cc(CCOC)nc(-c2ccccn2)n1 [compound 85],–
120,>120,CCCCCCCCCCCNc1cc(C(F)(F)F)nc(-c2ccccn2)n1 [compound 95],–
